{
  "source": "patent US7888389B2",
  "about": "(The Regents of the University of Michigan, priority 2002, dated 2011)",
  "key": {"[1]": {"assay": "Open label study of TM for initial treatment of Wilson's disease", "format": "in vivo, human", "description": "The inventors have carried out an open label study of the use of TM for initial treatment of neurologically presenting Wilson's disease patients for the past several years. The inventors have developed both a spectrophotometric and bioassay for the activity of the drug, to evaluate stability, and assure potency of the drug being administered (Brewer et al., 1991a; Brewer et al., 1994b). The drug slowly loses potency when exposed to air.\nThe inventors have now treated a total of 51 Wilson's disease patients with TM, all of whom presented with neurological or psychiatric disease, in an open label study. These patients were all diagnosed by standard criteria. […] Some of them were treated briefly with other agents prior to this trial. Two patients had psychiatric but not neurological symptoms.\nWith three exceptions in the earliest part of the study, all patients received a dose of 20 mg tid with meals, or qid with three meals and a snack. Thus, the only difference between a patient receiving 120 mg and 140 mg total dose is that the former was receiving 20 mg tid, or 60 mg, with meals, and the latter was receiving 20 mg qid, or 80 mg with meals plus a snack. The rest of the total daily dose was divided up into three equal doses and given between meals."}, "[2]": {"system": "breast cancer cells", "assay": "Human breast cancer xenograft growth in athymic nude mice", "format": "in vivo", "conditions": "TM 1 mg/day; TP-TM 1 mg/day and 1.5 mg/day; p<0.01 vs control", "method": "FIG. 5. […] 10^6 breast cancer cells were injected in the mammary fat pad of 4 groups of athymic, nude mice (5 mice per group). Control mice received no treatment.\nIn this study, 10^6 breast cancer cells were injected in the mammary fat pad of 4 groups of athymic, nude mice (5 mice per group). Control mice received no treatment."}, "[3]": {"system": "mouse sarcoma, MCA205, and mouse melanoma, B16B16", "assay": "Mouse tumor model, injected tumor cells", "format": "in vivo, C57B1/6J mice", "method": "Under these guidelines, anti-angiogenesis therapeutic studies were conducted using TM in a mouse tumor model. This study involved subcutaneous or intramuscular injection of tumor cells into young adult C57B1/6J mice. Two tumors were used, a mouse sarcoma, MCA205, and a mouse melanoma, B16B16. The MCA 205 tumor cell suspension was injected subcutaneously into C57B16 mice. After the tumors were palpable, copper deficiency was induced by use of TM in half the animals, using Cp levels to monitor copper status. The other half were sham treated. Tumor growth was compared between the untreated control group and mice treated with sufficient TM to reduce Cp to about 10% of normal controls."}, "[4]": {"assay": "Stability in open Petri dishes at room temperature (activity over time)", "conditions": "for percentage activity: open Petri dishes at room temperature", "description": "FIG. 4. […] Stability of each compound was studied under conditions that exacerbate instability, i.e. the drugs were in open Petri dishes at room temperature. The percentage activity is plotted as a function of time in days.\nThis study was done under conditions that exacerbate instability, ie. the drugs were in open Petri dishes at room temperature."}, "[5]": {"conditions": "cited from earlier work"}, "[6]": {"conditions": "late stages of liver disease; cited from earlier work"}, "[7]": {"system": "metastatic solid tumors", "quoted_text": "Serum ceruloplasmin (Cp) was used as a surrogate marker for total-body copper. As anemia is the first clinical sign of copper deficiency, the goal of the study was to reduce Cp to 20% of baseline value, without reducing hematocrit by more than 80% of baseline.\nPatients with effusions or bone marrow involvement as the only manifestations of disease, and those who had severe intercurrent illness requiring intensive management or were transfusion dependent, were excluded. […] Other requirements were demonstrable progression of disease in the previous 3 months, after standard treatments such as surgery, chemotherapy, radiotherapy, and/or immunotherapy, or progressive disease after declining conventional treatment modalities.\nThree dose regimens were evaluated. All dose levels consisted of TM 20 mg given 3 times daily with meals plus an escalating (levels I, II, and III) in-between meal dosing, given 3 times daily, for a total of 6 doses per day.\nBaseline Cp was taken as the nearest Cp measurement to day 1 of treatment, including day 1, since the blood was drawn pre-TM, for all patients. The target Cp reduction was defined as 20% of baseline Cp. […] In addition, if the absolute Cp was less than 5 mg/dl, then the patient was considered as having reached the target Cp. […] After reaching the target copper deficient state, TM doses were individually tailored to maintain Cp within a target window of 70-90% reduction from baseline.\nSix patients were to be enrolled at each dose level. After 4 patients were enrolled at level I, if one patient experienced dose-limiting toxicity (DLT) (defined as Hct<80% of baseline), 2 more patients were enrolled at level I. If no DLT was observed, patients were enrolled at the next dose level. Treatment was allowed to continue beyond induction of target copper deficiency, if the patients experienced a partial or complete clinical response or achieved clinical stable disease by the following definitions. Complete response is defined as the disappearance of all clinical and laboratory signs and symptoms of active disease. Partial response is defined as a 50% or greater reduction in the size of measurable lesions defined by the sum of the products of the longest perpendicular diameters of the lesions, with no new lesions or lesions increasing in size. […] Because copper deficiency is not a cytotoxic treatment modality, the patients who provide information about the efficacy of TM for long-term therapy, in this population of patients with advanced cancer, are primarily those who remained within the target Cp window of (20±10)% of baseline for over 90 days, without disease progression\nThe serum ceruloplasmin level obtained weekly was used as a surrogate measure of total-body copper status. […] The serum Cp level is in the range of 20-35 mg/dl and 30-65 mg/dl for normal controls and cancer patients, respectively. The objective as this trial was to reduce Cp to or below 20% of baseline, and to maintain this level, within a window spanned by (20±10) % of the baseline Cp, with typical Cp values in the range of 7-12 mg/dl. […] Thus, the copper deficiency objective of this trial was to reduce the Cp to 20% of baseline or below, without decreasing the patient's hematocrit or WBC to below 80% of the baseline value at entry.\nComplete blood counts, liver and renal function tests, urinalyses, and Cp level (by the oxidase method) were performed weekly for 16 weeks, then bi-weekly."}, "[8]": {"system": "MML cells (prostate cancer) and breast cancer cells"}, "[9]": {"system": "SUM149 breast cancer cells", "assay": "SUM149 orthotopic tumors in nude mice", "format": "in vivo", "description": "In this study, the ability of tetrathiomolybdate (TM) to abrogate or retard the growth of tumors in the mammary pads of nude mice after orthotropic injection of human breast cancer cells was studied. The highly angiogenic inflammatory breast cancer cell line called SUM149 was selected for this study. Given its high propensity to form palpable tumors within 2 weeks of injection into the mammary of 80-100% of the nude mice injected, this cell line posed a stringent test of the ability of TM to impair tumor progression.\nThree groups of 5 nude mice each were set up in separate cages. Groups 2 and 3 received TM in the drinking water to average an intake of 1.2 mg/day/mouse, starting at day-7. Groups 1, 2, and 3 were injected on day 0 with 10^6 SUM149 breast cancer cells in the second thoracic mammary fat pad. On day 34, as no palpable tumors were noticeable in any of the mice in the treatment groups, TM was skipped on groups 2 and 3, and then TM was restarted on group 2at a dose of 0.6 mg/day/mouse, while TM was resumed at full dose (1.2 mg/mouse/day) in group 3.\nThe developing tumors were measured approximately twice weekly, and the average of the product of the bi-dimensional perpendicular diameters for each group versus time was determined. The tumors in the control group grew relatively rapidly and all animals developed tumors. […] This dose decreases copper to approximately 10-20% of baseline levels. It is this degree of copper deficiency, well tolerated in both mice and humans, which appears to be required to inhibit tumor angiogenesis."}, "[10]": {"assay": "Storage stability of TM (bulk and capsules)", "format": "physicochemical", "conditions": "room temperature", "description": "TM and salts of TM are available; one of the preferred salts of TM is the ammonium salt. […] TM purchased from Aldrich Chemical Company (available in one kilogram bulk lots) is certified pure for human use. The bulk drug should be stored in the absence of oxygen, or the oxygen will gradually exchange with the sulfur, rendering the drug ineffective over time. The bulk drug is therefore stored under argon.\nTM was purchased in bulk lots suitable for human administration (Aldrich Chemical Company, Milwaukee, Wis.). […] At the time a prescription was written, the appropriate dose of TM was placed in gelatin capsules. […] Thus, TM was dispensed to each patient in eight-week installments throughout the trial."}, "[11]": {"conditions": "among the seven patients with anemia"}, "[12]": {"conditions": "½ dose of TM (0.6 mg/day/mouse)"}},
  "data": [
    {"substance": "tetrathiomolybdate [TM]", "values": [
      {"measurement": "cases of reversible anemia", "setting": "[1]; 45 patients, eight weeks TM as initial therapy", "result": 11.1, "unit": "%"},
      {"measurement": "patients with reversible anemia/bone marrow depression", "setting": "[1]; 51 patients treated", "result": "seven"},
      {"measurement": "patients with reduction in platelet count", "setting": "[1]; [11]", "result": "Three"},
      {"measurement": "patients with reduction in white blood cell count", "setting": "[1]; [11]", "result": "four"},
      {"measurement": "overtreatment", "setting": "[1]; dose of 180 mg/day or over", "result": "6 of 37 patients"},
      {"measurement": "overtreatment", "setting": "[1]; dose of 150 or lower", "result": "1 of 13 patients"},
      {"measurement": "time to close the plasma copper-molybdenum gap (free copper to zero)", "setting": "[1]; first patient", "result": 16, "unit": "days"},
      {"measurement": "patients with elevation of transaminase values (AST, ALT)", "setting": "[1]; in vivo", "result": "four"},
      {"measurement": "quantitative speech exam scores", "setting": "[1]; initial 8 weeks of TM therapy", "result": "No patient shows significant (more than 2.0 units) reduction in scores"},
      {"measurement": "average fall in hemoglobin", "setting": "[1]; the seven patients with anemia", "result": 3.4, "unit": "g %"},
      {"measurement": "patients with significant neurological worsening (change of more than 5 units)", "setting": "[1]; weeks of TM administration", "result": "4 % of the sample"},
      {"measurement": "tumor growth curves versus control animals", "setting": "[2]", "result": "effectively inhibiting tumor growth"},
      {"measurement": "tumor growth rate, final tumor size and weight", "setting": "[3]; TM sufficient to reduce Cp to about 10% of normal, 16 days observation", "result": "significant effect on reducing the growth rate of tumors, and on reducing final tumor size and weight"},
      {"measurement": "tumor weight normalized to total weight of the animal versus control", "setting": "[3]; mouse, in vivo", "result": "weighed significantly less than the tumors in control mice"},
      {"measurement": "half life", "setting": "[4]", "result": "about 40 days"},
      {"measurement": "percentage activity", "setting": "[4]; Day 0", "result": 100},
      {"measurement": "percentage activity", "setting": "[4]; Day 45", "result": 44},
      {"measurement": "percentage activity", "setting": "[4]; Day 148", "result": 9},
      {"measurement": "percentage activity", "setting": "[4]; Day 211", "result": 0},
      {"measurement": "potency retained in gelatin capsules", "setting": "[5]; eight weeks", "result": "at least 90%"},
      {"measurement": "stability of bulk drug", "setting": "[5]; under argon", "result": "stable for several years under argon"},
      {"measurement": "efficacy in LEC rats", "setting": "[6]", "result": "very effective"},
      {"measurement": "speed of reducing Cp level to <20%", "setting": "[7]; 20 mg tid with meals plus single 60 mg between meals vs 20 mg tid with and 20 mg tid between meals", "result": "more rapidly"},
      {"measurement": "mean time to 50% reduction of Cp", "setting": "[7]; 90, 105, 120 mg/day", "result": 30, "unit": "days"},
      {"measurement": "median time to Cp 50% of baseline", "setting": "[7]; 90, 105, 120 mg/day", "result": 28, "unit": "days"},
      {"measurement": "level III dose outcome", "setting": "[7]; TM 120 mg/day", "result": "effective in reaching the target Cp, without added toxicity"},
      {"measurement": "time for further reduction to Cp levels of 5-10 mg/dl", "setting": "[7]; after reaching 50% of baseline", "result": "20 to 30", "unit": "days"},
      {"measurement": "lung lesions in two patients with stable disease", "setting": "[7]; at target Cp for 120 and 49 days", "result": "complete disappearance of some lung lesions and decrease in size of other lung lesions"},
      {"measurement": "additional toxicities with long-term maintenance", "setting": "[7]; human, in vivo", "result": "No additional toxicities of any type were observed"},
      {"measurement": "burping", "setting": "[7]; human, in vivo", "result": "Several patients experienced transient, occasional sulphur-smelling burping"},
      {"measurement": "mild (greater than 80% of baseline Hct) reversible anemia", "setting": "[7]; human, in vivo", "result": 4, "unit": "patients"},
      {"measurement": "only drug-related toxicity observed", "setting": "[7]; human, in vivo", "result": "mild anemia in one patient"},
      {"measurement": "time for hematocrit to recover after stopping the drug", "setting": "[7]; human, in vivo", "result": "5 to 7", "unit": "days"},
      {"measurement": "time to rapid rise in Cp after TM discontinued", "setting": "[7]; human, in vivo", "result": "≤ 48", "unit": "h"},
      {"measurement": "toxicities at Cp levels at or above 20% of baseline", "setting": "[7]; human, in vivo", "result": "no cardiac, pulmonary, GI, renal, hepatic, hematologic, infectious, skin, mucosal, or neurologic toxicities observed"},
      {"measurement": "treated patients maintained at target Cp for more than 90 days", "setting": "[7]; human, in vivo", "result": 39, "unit": "%"},
      {"measurement": "patients with serum Cp lowered to 50% of baseline", "setting": "[7]; initial TM 90 to 120 mg per day", "result": "17 out of 18 patients"},
      {"measurement": "duration of stable disease on TM treatment", "setting": "[7]; one patient, previously untreated metastatic breast cancer", "result": "over 6 months"},
      {"measurement": "decrease in blood flow to tumor mass (3D-ultrasound)", "setting": "[7]; rib metastasis of renal cell carcinoma, approximately 8 weeks after target copper deficiency", "result": 4.4, "unit": "fold"},
      {"measurement": "effective decoppering serum concentration relative to threshold lethal level for cells (fold lower)", "setting": "[8]", "result": "100-500 fold"},
      {"measurement": "palpable tumors in treatment groups", "setting": "[9]; TM 1.2 mg/day/mouse in drinking water from day -7", "result": "no tumors were palpable until TM was skipped on day 34"},
      {"measurement": "copper level", "setting": "[9]; full dose TM 1.2 mg/day/mouse", "result": "10-20 % of baseline levels"},
      {"measurement": "tumor growth after day 34", "setting": "[9]; full dose TM 1.2 mg/day/mouse", "result": "only very small tumors have grown"},
      {"measurement": "decrease of copper levels", "setting": "[9]; [12]", "result": 50, "unit": "%"},
      {"measurement": "tumor growth after day 34", "setting": "[9]; [12]", "result": "the tumors grew more rapidly"},
      {"measurement": "stability in capsules", "setting": "[10]", "result": "stable in capsules for several months at room temperature"}
    ]}
  ]
}
